Some test systems named below: HCT-15 colon; K-562 leukemia; RPMI-8226 leukemia; SK-MEL-5 melanoma; M14 melanoma; MOLT-4 leukemia; A549 NSCLC; TK-10 renal; NCI-H226 lung; CAKI-1 renal.
What all share (assay): NCI-60 cell line screen, 48 h

Structures are written as SMILES.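 Cells were grown in 96-well plates and exposed to each compound for 48 hours at five concentrations; endpoints were interpolated linearly between bracketing concentrations, or set to the highest concentration if not reached. At the TGI there is no net growth.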

On to `Clc1cc(C(c2cc(Cl)sc2Cl)c2cc(Cl)sc2Cl)c(Cl)s1`, for which the TGI in the experiment with HCT-15 colon, in the experiment with K-562 leukemia, in the experiment on RPMI-8226 leukemia, with SK-MEL-5 melanoma, in the experiment on M14 melanoma and with MOLT-4 leukemia was above 100 µM throughout. The TGI in the experiment on A549 NSCLC, in the experiment with TK-10 renal, in the experiment with NCI-H226 lung and with CAKI-1 renal was above 100 µM in each case.

Turning to `N#Cc1nc(CCCN2C(=O)c3ccccc3C2=O)oc1N`, the TGI in the experiment with HCT-15 colon, in the experiment with K-562 leukemia, in the experiment with RPMI-8226 leukemia, in the experiment on SK-MEL-5 melanoma, in the experiment on M14 melanoma and in the experiment with MOLT-4 leukemia was above 100 µM in each case. For the same compound, the TGI in the experiment with A549 NSCLC, in the experiment with TK-10 renal, with NCI-H226 lung and in the experiment with CAKI-1 renal was above 100 µM each time.

Regarding `O=C1CS/C(=N/N=C/c2cn(Cc3ccc(Cl)cc3Cl)c3ccccc23)N1`, the TGI in the experiment with HCT-15 colon, with K-562 leukemia, in the experiment with RPMI-8226 leukemia, with SK-MEL-5 melanoma, in the experiment with M14 melanoma and in the experiment with MOLT-4 leukemia was above 100 µM in each case. Further, the TGI with A549 NSCLC, in the experiment on TK-10 renal, with NCI-H226 lung and in the experiment with CAKI-1 renal was above 100 µM each time.

`N#C/C(=C\c1cccc(Br)c1)c1nc2ccccc2c(=O)[nH]1`: the TGI in the experiment with HCT-15 colon, in the experiment with K-562 leukemia, in the experiment with RPMI-8226 leukemia, in the experiment with SK-MEL-5 melanoma, with M14 melanoma and with MOLT-4 leukemia was above 100 µM throughout. Moreover, the TGI in the experiment with A549 NSCLC, in the experiment with TK-10 renal, in the experiment with NCI-H226 lung and in the experiment with CAKI-1 renal was above 100 µM in each case.

As for `Cc1nnc2n1-c1ccccc1N(Cc1ccccc1)CC2`, the TGI in the experiment on HCT-15 colon is above 100 µM; in the experiment on K-562 leukemia, above 100 µM; in the experiment on RPMI-8226 leukemia, 58.3 µM; in the experiment with SK-MEL-5 melanoma it was above 100 µM; with M14 melanoma it was above 100 µM; in the experiment with MOLT-4 leukemia, 89.5 µM. For the same compound, the TGI in the experiment on A549 NSCLC, in the experiment with TK-10 renal, in the experiment with NCI-H226 lung and with CAKI-1 renal was above 100 µM each time.

For the compound `CCCCCCCCCCCCOCCOCCOCCOCCOCCOCC(=O)NC(Cc1ccccc1)C(=O)Oc1ccc([N+](=O)[O-])cc1` (stereo not given), the TGI with HCT-15 colon is above 100 µM; in the experiment on K-562 leukemia it was above 100 µM; with RPMI-8226 leukemia, above 100 µM; in the experiment with SK-MEL-5 melanoma it was above 100 µM; with M14 melanoma, above 100 µM; with MOLT-4 leukemia, 74.8 µM. Moreover, the TGI with A549 NSCLC, with TK-10 renal, with NCI-H226 lung and with CAKI-1 renal was above 100 µM throughout.

Turning to `COc1ccc2c(c1)-c1c(c3cc(OC)ccc3n1CCN(C)C)CC2`, the TGI in the experiment with HCT-15 colon stood at 28.9 µM; in the experiment with K-562 leukemia, 26.5 µM; in the experiment with RPMI-8226 leukemia, 31.2 µM; in the experiment with SK-MEL-5 melanoma, 24.9 µM; in the experiment with M14 melanoma, 28.5 µM; in the experiment on MOLT-4 leukemia, 33.8 µM. The TGI with A549 NSCLC is 29.9 µM; in the experiment with TK-10 renal, 28.9 µM; in the experiment on NCI-H226 lung, 30 µM; with CAKI-1 renal, 28.8 µM.

With `c1c(N2CCOCC2)ssc1=[N+]1CCOCC1`, the TGI in the experiment on HCT-15 colon, in the experiment on K-562 leukemia, in the experiment with RPMI-8226 leukemia, with SK-MEL-5 melanoma, in the experiment on M14 melanoma and in the experiment on MOLT-4 leukemia was above 100 µM each time. The TGI in the experiment with A549 NSCLC, with TK-10 renal, with NCI-H226 lung and in the experiment on CAKI-1 renal was above 100 µM throughout.

Consider `C=C1C[C@@H]2CC[C@@]34C[C@H]5O[C@H]6[C@@H](O3)[C@H]3O[C@H](CC[C@@H]3O[C@H]6[C@H]5O4)CC(=O)C[C@@H]3[C@@H](OC)[C@@H](C[C@H](O)CN)O[C@H]3C[C@H]3O[C@@H](CC[C@@H]1O2)C[C@@H](C)C3=C`, for which the TGI with HCT-15 colon is above 0.76 µM; with K-562 leukemia, above 1 µM; in the experiment with RPMI-8226 leukemia, 0.0344 µM; with SK-MEL-5 melanoma it was 0.043 µM; in the experiment on M14 melanoma it was 0.0307 µM; in the experiment with MOLT-4 leukemia it was 0.0479 µM. Also, the TGI with A549 NSCLC was above 1 µM; with TK-10 renal, above 1 µM; in the experiment on NCI-H226 lung it was 0.00433 µM; with CAKI-1 renal, 0.366 µM.

Regarding `O=C(/C=C\Nc1ccccc1O)C(F)(F)F`, the TGI in the experiment with HCT-15 colon is above 100 µM; with K-562 leukemia, above 100 µM; in the experiment with RPMI-8226 leukemia, above 100 µM; in the experiment with SK-MEL-5 melanoma it was 53.5 µM; in the experiment with M14 melanoma it was above 100 µM; with MOLT-4 leukemia, above 100 µM. For the same compound, the TGI in the experiment with A549 NSCLC, in the experiment with TK-10 renal, in the experiment with NCI-H226 lung and in the experiment with CAKI-1 renal was above 100 µM each time.

In the case of `Nc1nncc2[nH]cnc12`, the TGI with HCT-15 colon is above 100 µM; with K-562 leukemia, above 100 µM; in the experiment on RPMI-8226 leukemia it was above 56 µM; in the experiment on SK-MEL-5 melanoma, above 100 µM; in the experiment on M14 melanoma it was above 100 µM; with MOLT-4 leukemia it was above 45.3 µM. Besides, the TGI in the experiment on A549 NSCLC, in the experiment on TK-10 renal, in the experiment with NCI-H226 lung and with CAKI-1 renal was above 100 µM each time.

Values taken from PubChem BioAssay (NCI).
